Each structure is given as a SMILES string.

For this experiment, the target named is T1, aldosterone receptor (Rattus norvegicus, UniProt P22199).
T1 construct: centrifuged at 105,000 g for 30 minutes, and then a supernatant was collected as a renal soluble fraction; from tissue; host or cells: rat kidney (adrenalectomized rat), 105,000 g supernatant (cytosol)
T1 sequence (P22199 1-981): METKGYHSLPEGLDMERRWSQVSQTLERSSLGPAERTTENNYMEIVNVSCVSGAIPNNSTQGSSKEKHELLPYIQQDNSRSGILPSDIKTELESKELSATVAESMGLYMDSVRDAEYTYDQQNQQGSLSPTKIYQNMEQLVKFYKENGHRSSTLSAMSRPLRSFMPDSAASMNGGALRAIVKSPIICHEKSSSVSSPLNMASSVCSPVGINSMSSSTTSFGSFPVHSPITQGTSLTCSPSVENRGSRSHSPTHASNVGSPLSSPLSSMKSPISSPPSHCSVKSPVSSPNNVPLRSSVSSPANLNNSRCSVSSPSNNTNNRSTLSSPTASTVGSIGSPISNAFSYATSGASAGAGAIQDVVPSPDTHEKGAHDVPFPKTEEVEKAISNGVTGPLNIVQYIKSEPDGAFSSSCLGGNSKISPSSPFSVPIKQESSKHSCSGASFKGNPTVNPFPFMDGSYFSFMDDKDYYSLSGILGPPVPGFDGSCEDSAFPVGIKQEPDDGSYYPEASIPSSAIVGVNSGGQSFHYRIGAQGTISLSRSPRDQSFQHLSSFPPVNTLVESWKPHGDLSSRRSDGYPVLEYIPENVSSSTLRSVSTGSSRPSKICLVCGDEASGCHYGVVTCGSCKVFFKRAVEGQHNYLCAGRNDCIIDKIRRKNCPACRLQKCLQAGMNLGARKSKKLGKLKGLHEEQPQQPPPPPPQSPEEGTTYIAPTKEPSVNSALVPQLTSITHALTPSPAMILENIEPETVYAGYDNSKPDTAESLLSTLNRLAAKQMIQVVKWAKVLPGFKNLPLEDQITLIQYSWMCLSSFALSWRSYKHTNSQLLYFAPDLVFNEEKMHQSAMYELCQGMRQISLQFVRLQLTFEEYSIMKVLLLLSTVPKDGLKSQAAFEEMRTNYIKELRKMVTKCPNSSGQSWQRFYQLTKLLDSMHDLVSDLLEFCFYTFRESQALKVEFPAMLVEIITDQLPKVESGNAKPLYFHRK
The experiment is described as follows: Binding inhibition test for aldosterone receptor ([3H]aldosterone, rat renal soluble fraction). Particulars: [3H]aldosterone 2 nM, rat renal soluble fraction, in the presence of 2 μM RU-486, 4° C. about 18 hours; read-out: MR IC50. The method, then: Binding Inhibition Test for Aldosterone Receptor
A rat was layed open in flank regions (on both sides) to remove both adrenal glands. After stitching up the incision, the rat was returnd to a breeding cage again. After removing the kidney from the rat reared for about 3 to 5 days, the kidney was homogenized in 0.1 M Tris-HCl, 0.25M sucrose, 0.1M Na2MoO4 and 2 mM DTT buffer solution (pH7.4). The resultant was centrifuged at 105,000 g for 30 minutes, and then a supernatant was collected as a renal soluble fraction.
The rat renal soluble fraction (0.5 to 1.5 mg), a labeled ligand [^3H] aldosterone (2 nM) and a test article were reacted in the presence of 2 μM RU-486 (glucocorticoid receptor antagonist) in 100 μL of total amounts at 4° C. for about 18 hours. Afterwards, to the reaction solution was added 50 μL of 5% dextran-coated activated charcoal, and the mixture was immingled, and then centrifuged at 3,000 g for 5 minutes. Then, a supernatant (100 μL) was collected and mixed with a liquid scintillator ACS-II (Amersham) (3.5 mL), and then analyzed its radioactivity by a liquid scintillation counter (manufactured by Packard, Tri Carb 2700TR). A non-specific binding was obtained by addition of 2 μM aldosterone to a reaction solution. […]
Binding inhibition rate (%)=100−{(B−N)/(B0−N)}×100
B: labeled ligand binding amounts in the presence of a test article and a labeled ligand
B0: labeled ligand binding amounts in the absence of a test article
N: labeled ligand binding amounts in the presence of excess aldosterone (2 μM)
Test example 1 was carried out for compounds obtained in the Examples.
For orientation: IC50 means the concentration that inhibits the measured activity by half. Regarding `CS(=O)(=O)c1ccc(NC(=O)c2ccc(-c3ccccc3OC(F)(F)F)c(CN3CCCC(F)(F)C3)c2)cc1` [Example 144], the IC50 was found to be 500 nM. Turning to `CS(=O)(=O)c1ccc(NC(=O)c2ccc(-c3ccccc3OC(F)(F)F)c(CNC[C@H]3CCCO3)c2)cc1` [Example 147], the IC50 is less than 10000 nM. Next, `Cn1ccc(CNCc2cc(C(=O)Nc3ccc(S(C)(=O)=O)cc3)ccc2-c2ccccc2OC(F)(F)F)n1` [Example 153]: 470 nM; `CCN(CC)Cc1cc(C(=O)Nc2ccc(S(C)(=O)=O)cc2)ccc1-c1ccccc1OC(F)(F)F` [Example 159]: 290 nM; `CS(=O)(=O)c1ccc(NC(=O)c2ccc(-c3ccccc3OC(F)(F)F)c(CN3CCCC3)c2)cc1` [Example 160]: 2000 nM. With `CS(=O)(=O)c1ccc(NC(=O)c2ccc(-c3ccccc3OC(F)(F)F)c(CN3CCOCC3)c2)cc1` [Example 162] the figure was 660 nM. Consider `CS(=O)(=O)c1ccc(NC(=O)c2ccc(-c3ccccc3OC(F)(F)F)c(CN3CCCOCC3)c2)cc1` [Example 163], for which the IC50 was less than 10000 nM. With `CS(=O)(=O)c1ccc(NC(=O)c2ccc(-c3ccccc3OC(F)(F)F)c(CN3CC(F)(F)C3)c2)cc1` [Example 171] the figure was less than 10000 nM; with `CS(=O)(=O)c1ccc(NC(=O)c2ccc(-c3ccccc3OC(F)(F)F)c(CN3CCC(F)(F)CC3)c2)cc1` [Example 174], 940 nM.

In the case of `CS(=O)(=O)c1ccc(NC(=O)c2ccc(-c3ccccc3OC(F)(F)F)c(CNCC(F)F)c2)cc1` [Example 176], the 50% inhibitory concentration (IC50) was determined as 390 nM. As for `CS(=O)(=O)c1ccc(NC(=O)c2ccc(-c3ccccc3OC(F)(F)F)c(CNCc3ccccc3)c2)cc1` [Example 180], the half-maximal inhibitory concentration (IC50) was found to be 280 nM. As to `Cn1cccc1CNCc1cc(C(=O)Nc2ccc(S(C)(=O)=O)cc2)ccc1-c1ccccc1OC(F)(F)F` [Example 182], the concentration for half-maximal inhibition (IC50) was found to be 350 nM. Next, `CCN(Cc1ccccc1)Cc1cc(C(=O)Nc2ccc(S(C)(=O)=O)cc2)ccc1-c1ccccc1OC(F)(F)F` [Example 189]: less than 10000 nM; `CS(=O)(=O)c1ccc(NC(=O)c2ccc(-c3ccccc3OC(F)(F)F)c(CNCCOc3ccccc3)c2)cc1` [Example 190]: less than 10000 nM; `CN(Cc1cc(C(=O)Nc2ccc(S(C)(=O)=O)cc2)ccc1-c1ccccc1OC(F)(F)F)C1CCCCC1` [Example 202]: 760 nM. With `CCC(C)(C)NCc1cc(C(=O)Nc2ccc(S(C)(=O)=O)cc2)ccc1-c1ccccc1OC(F)(F)F` [Example 206] the figure was less than 10000 nM; with `CS(=O)(=O)c1ccc(NC(=O)c2ccc(-c3ccccc3OC(F)(F)F)c(CN[C@H]3CCCc4ccccc43)c2)cc1` [Example 211], 910 nM. Next, `Cn1ccnc1CNCc1cc(C(=O)Nc2ccc(S(C)(=O)=O)cc2)ccc1-c1ccccc1OC(F)(F)F` [Example 218]: 370 nM. As to `CS(=O)(=O)c1ccc(NC(=O)c2ccc(-c3ccccc3OC(F)(F)F)c(CNCC3CCCCC3)c2)cc1` [Example 221], the IC50 was less than 10000 nM. On to `CC(C)CCNCc1cc(C(=O)Nc2ccc(S(C)(=O)=O)cc2)ccc1-c1ccccc1OC(F)(F)F` [Example 226], for which the concentration for half-maximal inhibition (IC50) was less than 10000 nM. As to `CS(=O)(=O)c1ccc(NC(=O)c2ccc(-c3ccccc3OC(F)(F)F)c(CN[C@@H]3CCCc4ccccc43)c2)cc1` [Example 229], the concentration for half-maximal inhibition (IC50) was less than 100 nM. Next, `CN(Cc1ccc(F)cc1)Cc1cc(C(=O)Nc2ccc(S(C)(=O)=O)cc2)ccc1-c1ccccc1OC(F)(F)F` [Example 231]: less than 10000 nM. For `COc1cc(NC(=O)c2ccc(-c3ccccc3C(F)(F)F)c(C(O)C(F)(F)F)c2)ccc1S(N)(=O)=O` (centres unmarked) [Example 244], the concentration for half-maximal inhibition (IC50) is 680 nM. Next, `COc1cc(NC(=O)c2ccc(-c3ccccc3-c3cccs3)c(CO)c2)ccc1S(N)(=O)=O` [Example 257]: 84 nM. Next, `COc1cc(NC(=O)c2ccc(-c3ccccc3-c3nc(C)no3)c(CO)c2)ccc1S(N)(=O)=O` [Example 259]: 450 nM; `COc1cc(NC(=O)c2ccc(-c3ccccc3OC(F)(F)C(F)F)c(CO)c2)ccc1S(N)(=O)=O` [Example 260]: 440 nM. Next, `CCN(CC)c1cc(C(=O)Nc2ccc(S(N)(=O)=O)cc2)ccc1-c1ccccc1OC(F)(F)F` [Example 265]: 360 nM; `COc1cc(NC(=O)c2ccc(-c3ccccc3C(F)(F)F)c(CNCC(F)F)c2)ccc1S(N)(=O)=O` [Example 268]: 990 nM.

Take `COc1ccc(-c2ccc(C(=O)Nc3ccc(S(N)(=O)=O)c(OC)c3)cc2CNCC(F)F)c(C(F)(F)F)c1` [Example 270]: the half-maximal inhibitory concentration (IC50) amounted to 650 nM. On to `COc1cc(NC(=O)c2ccc(-c3ccc(N)cc3C(F)(F)F)c(C)c2)ccc1S(N)(=O)=O` [Example 271], for which the IC50 was 370 nM. For the compound `COc1cc(NC(=O)c2ccc(-c3ccc(O)cc3C(F)(F)F)c(C)c2)ccc1S(N)(=O)=O` [Example 272], the concentration for half-maximal inhibition (IC50) was determined as 400 nM.

`COc1cc(NC(=O)c2ccc(-c3ncccc3C(F)(F)F)c(C)c2)ccc1S(N)(=O)=O` [Example 279]: the IC50 amounted to 4100 nM. Next, `COc1cc(NC(=O)c2ccc(-c3cccnc3C3CCC3)c(C)c2)ccc1S(N)(=O)=O` [Example 282]: 730 nM; `COc1cc(NC(=O)c2ccc(-c3ccccc3OC(F)(F)F)c(CN3CCC(F)(F)CC3)c2)ccc1S(N)(=O)=O` [Example 286]: 180 nM; `COc1cc(NC(=O)c2ccc(-c3ccccc3OC(F)(F)F)c(CN3CC(F)(F)C3)c2)ccc1S(N)(=O)=O` [Example 287]: 250 nM. Next, `COc1cc(NC(=O)c2ccc(-c3ccccc3OC(F)(F)F)c(CNC3CC3)c2)ccc1S(N)(=O)=O` [Example 288]: 120 nM; `COc1cc(NC(=O)c2ccc(-c3ccccc3OC(F)(F)F)c(CNC3CCC3)c2)ccc1S(N)(=O)=O` [Example 289]: 360 nM; `COc1cc(NC(=O)c2ccc(-c3ccccc3OC(F)(F)F)c(CNc3nnn[nH]3)c2)ccc1S(N)(=O)=O` [Example 293]: 270 nM. Next, `COc1cc(NC(=O)c2ccc(-c3ccccc3OC(F)(F)F)c(CN(C)C3CC3)c2)ccc1S(N)(=O)=O` [Example 294]: 22 nM. As to `CCN(CC)Cc1cc(C(=O)Nc2ccc(S(N)(=O)=O)c(OC)c2)ccc1-c1ccccc1OC(F)(F)F` [Example 295], the IC50 was determined as 100 nM. `COc1cc(NC(=O)c2ccc(-c3ccccc3OC(F)(F)F)c(CN3CCCCC3)c2)ccc1S(N)(=O)=O` [Example 297]: the half-inhibitory concentration (IC50) was determined as 190 nM. Next, `COc1cc(NC(=O)c2ccc(-c3ccccc3OC(F)(F)F)c(CN3CCCCCCC3)c2)ccc1S(N)(=O)=O` [Example 299]: 140 nM. Next, `COc1cc(NC(=O)c2ccc(-c3ccccc3OC(F)(F)F)c(CN3CC(C)OC(C)C3)c2)ccc1S(N)(=O)=O` (centres unmarked) [Example 302]: 61 nM. On to `COc1cc(NC(=O)c2ccc(-c3ccccc3OC(F)(F)F)c(CN3CCCOCC3)c2)ccc1S(N)(=O)=O` [Example 303], for which the 50% inhibitory concentration (IC50) came to 150 nM. Next, `COc1cc(NC(=O)c2ccc(-c3ccccc3OC(F)(F)F)c(CN3CC(F)(F)C(F)(F)C3)c2)ccc1S(N)(=O)=O` [Example 305]: 150 nM; `COc1cc(NC(=O)c2ccc(-c3ccccc3OC(F)(F)F)c(CNC3=NCCO3)c2)ccc1S(N)(=O)=O` [Example 309]: 230 nM. Regarding `CCCOc1ccc(-c2ccc(NC(=O)c3ccc(S(N)(=O)=O)c(OC)c3)cc2CO)c(C(F)(F)F)c1` [Example 313], the IC50 was 2200 nM.
